Source: patent publication US20150056166A1, “FLAVONE DERIVATIVES AND THEIR USE” (Twincore GmbH, priority 2012, published 2015)
Entries after “also recorded” stand apart in the source; their conditions may differ.

What was measured:
JcR-2a virus = test: Chloroquine alone and with BJ486K, JcR-2a virus in Huh7.5 F-Luc cells; format: cell-based, HCV; details: chloroquine alone
Experimental: Result from one experiment with triplicate measurements is given. (B) Combined effects of CQ on BJ486K activity (and vice versa) were analyzed by inoculation of Huh7.5 F-Luc cells with JcR-2a virus in the presence of given drugs and determination of luciferase activity 72 h later. Results from 3 independent experiments are given.

Huh7.5 F-Luc cells = test: Cytotoxicity of chloroquine (FIG. 11A); details: at the used concentrations
[1] = test system: Luc-Jc1/E2/G451R reporter viruses; test: Resistance test, Luc-Jc1 versus Luc-Jc1/E2/G451R reporter virus; format: cell-based, HCV; details: Huh7-Lunet/CD81 cells, luciferase 72 h
Experimental: FIG. 4: BJ486K is not affected by viral resistance towards a SR-BI-targeting compound, inhibits HCV of different genotypes and prevents infection of primary human hepatocytes Huh7-Lunet/CD81 cells were inoculated with Luc-Jc1 or Luc-Jc1/E2/G451R reporter viruses in the presence of increasing doses of (A) ITX 5061 or (B) BJ486K. Cells were lysed 72 h later. Luciferase activity was determined and is expressed relative to control infections conducted in the presence of DMSO. Mean values of four independent experiments each with quadruplicate measurements including the standard deviation are shown. (C) Huh7-Lunet/CD81 cells were inoculated with genotype 1a, 1b, 2b, 3a, 4a, 5a and 6a chimeric reporter viruses in the presence of increasing doses of BJ486K. Luciferase activity was determined 72 h later and is expressed relative to infections in the presence of DMSO. Mean values of three independent experiments, each with triplicate measurements, are given. (D) Primary human hepatocytes were inoculated with Con1/C3 in the presence of DMSO or increasing concentrations of BJ486K. The inhibition of HCV infection was assessed by focus-formation assay and is expressed as % inhibition relative to DMSO-treated cells. Mean values of duplicate measurements including the error range are given. […]

[2] = UV-visible spectrophotometric titration by MgCl2; format: physicochemical; details: high excess of Mg(II); CH3CN/H2O (1:1 by volume)
Experimental: FIG. 17: (A) UV-visible spectrophotometric titration of BJ486K (newly re-prepared as XM148) by MgCl2 and (B) absorption electronic spectra of the flavone BJ486K and its magnesium(II) complex BJ486K-MgCl2. Solvent: CH3CN/H2O (1:1 by volume); T=25.0° C.; l=1 cm; [BJ486K]tot=7.63×10^−5 M; (1) [MgCl2]tot/[BJ486K]tot=0; (2) [MgCl2]tot/[BJ486K]tot=185.8. To ensure solubilisation of both the flavone BJ486K (newly re-prepared as XM148) and MgCl2, a mixed solvent made of 50% of water and 50% of CH3CN was used. A stock solution of XM148 ([…] in 10 mL of argon saturated CH3CN, [XM148]tot=9.54×10^−3 M) was prepared. 160 μL of the flavone stock solution in CH3CN was diluted in 1 mL and 840 μL of Ar-saturated water and CH3CN, respectively. The absorption spectrophotometric titration (200-800 nm) was carried out by successive addition of aliquots (10 μL) of a stock solution of MgCl2 freshly prepared in water (337.6 mg in 5 mL, [MgCl2]tot=7.09×10^−3 M). […]
FIG. 18: (A) UV-visible spectrophotometric titration of XM131 (final precursor B, Scheme 2) by MgCl2. […] Absorption spectra (200-800 nm) was recorded after each addition of aliquots (10 μL) of a stock solution of MgCl2 freshly prepared in water (337.6 mg in 5 mL, [MgCl2]tot=7.09×10^−3 M). […]

Jc1 = test: HCV virus assembly/release, intra- and extracellular core protein after Jc1 RNA transfection; format: cell-based; details: 48 h after transfection, drugs added 4 h after transfection
Experimental: (A) Huh7-Lunet/CD81 cells were transfected with the subgenomic luciferase replicon depicted at the top. Drugs were added 4 h post transfection and the level of HCV RNA translation and RNA replication was quantified by luciferase assays 72 h post transfection. Mean values of three independent experiments each with quadruplicate measurements including the standard deviation are shown. (B) Cells were transfected with the Jc1 chimera depicted above and drugs were added 4 h later. HCV virus release in the presence or absence of given compounds was determined by quantification of intracellular and extracellular core protein levels using a core-specific ELISA. Mean values of three independent experiments with single measurements including the error range are given. (C) Huh7-Lunet/CD81 cells were inoculated with Luc-Jc1 reporter viruses prepared in the absence of drugs. BJ486K was added to the cells only prior to inoculation (black), only during inoculation (grey) or selectively directly after inoculation (white) as schematically depicted at the top. Infectivity was determined 72 h later by luciferase assays and compared to DMSO-treated controls. Mean values of three independent experiments each with quadruplicate measurements including the standard deviation are shown.
Huh7-Lunet/CD81 cells were transfected with Jc1 RNA and seeded on a 6-well plate. Compounds were added 4 h later. At 48 h after transfection, cell culture supernatant was harvested and used for measuring the extracellular core amount. Cells were washed once with PBS, scraped and centrifuged for 5 min at 1000×g. Cell pellets were resuspended in 500 μl fresh culture fluid and subjected to three cycles of freeze and thaw using liquid nitrogen and a 37° C. thermo block. Samples were than centrifuged at 10,000×g for 10 min to remove cell debris and the core amount was measured (intracellular core protein) using the […] […]
To determine whether BJ486K affects virus assembly or release we transfected Huh7-Lunet/CD81 cells with Jc1 RNA and quantified intra- and extracellular levels of core protein 48 h after transfection (FIG. 2B).

JcR-2a virus particles = test: Antiviral activity against early steps of HCV cell entry, synchronized JcR-2a infection (FIG. 3); format: cell-based; details: heparin 50 μg/ml, JS-81 2 μg/ml; inhibitor present 4 h
Experimental: FIG. 3: BJ486K inhibits cell entry post virus attachment. The design of the JcR-2a reporter virus construct is given at the top. Huh7-Lunet/CD81 cells were inoculated with concentrated JcR-2a particles at 4° C. for 60 minutes. Subsequently, unbound virus particles were washed away and cells were shifted to 37° C. to permit synchronized cell entry. According to the 8 experimental protocols depicted in the middle, various cell entry inhibitors including heparin (50 μg/ml), ITX5061 (10 μM), CD81-specific antibody JS-81 (2 μg/ml) and BJ486K (20 μM) were either present during inoculation (protocol 1) or were added at different time points after inoculation (protocols 2 to 8). In each case, inhibitor was present for 4 h (dashed line) and was then washed away. Efficiency of cell entry was determined 48 h post inoculation by determination of luciferase activity and is expressed relative to control infections conducted in the presence of solvent alone (DMSO). Mean values of three independent experiments each with quadruplicate measurements including the standard deviation are shown.
JcR-2a virus particles were incubated with Huh7-Lunet/CD81 cells seeded as described above for 1 h at 4° C. to synchronize cell entry. Various inhibitors including 50 μg/ml heparin (Sigma-Aldrich), CD81-specific antibody JS-81 (2 μg/ml; Becton Dickinson), ITX 5061 (10 μM) or BJ486K (20 μM), were added during virus inoculation (protocol 1) or at indicated time points after virus inoculation (protocol 2-8). After 4 h inhibitor treatment, medium was changed to fresh culture fluid without inhibitors and the cells were lysed 48 h after inoculation as described above. Efficiency of infection was determined by luciferase assay using a tube luminometer (Lumat LB9507, Berthold, Freiburg, Germany).
To resolve which step of HCV cell entry is inhibited by BJ486K, we assessed its antiviral activity when administered at different time points during the early phase of infection. To this end, Huh7-Lunet/CD81 cells were inoculated for one hour at 4° C. with a reporter virus prepared in the absence of drugs. […]

CCN(CC)CCCC(C)Nc1ccnc2cc(Cl)ccc12 (stereo not drawn) [Chloroquine, chloroquine]
anti-HCV effect (JcR-2a virus): dose-dependent anti-HCV effect | anti-HCV effect (JcR-2a virus; listed as chloroquine): dose-dependent inhibition of HCV | cytotoxicity (Huh7.5 F-Luc cells): no cytotoxicity detectable | cytotoxicity (Huh7.5 F-Luc cells; listed as chloroquine): no cytotoxicity

COc1c(NC(=O)C(=O)c2ccc(OCCN3CCOCC3)c3ccccc23)cc(C(C)(C)C)cc1NS(C)(=O)=O [ITX5061, reference compound]
antiviral activity against G451R mutant compared with wild type [1]: resistant

COc1ccc(-c2cc(=O)c3c(OC)c(O)c(OC)cc3o2)cc1 [XM131, 6-Hydroxy-5,7-dimethoxy-2-(4-methoxy-phenyl)-chromen-4-one]
Mg(II) complexation [2]: no absorption variation can be observed; also recorded: no Mg(II) complex is observed

O=C1C[C@@H](c2ccc(O)cc2)Oc2cc(O)cc(O)c21 [naringenin]
reduction of extracellular levels of core protein (Jc1): ca. 5 fold

C=C[C@H]1C[N@@]2CC[C@H]1C[C@@H]2[C@@H](O)c1ccnc2ccc(OC)cc12 [quinidine]
reduction of extracellular levels of core protein (Jc1): more than 100 fold

heparin [reference compound]
inhibition of HCV entry by time of addition, in words (JcR-2a virus particles): only interfered with HCV infection when present already during inoculation
